Each structure is given as a SMILES string. Structures can show the parent of a compound that is named as a salt.

From patent US20130023563A1, “AMIDINOANILINE DERIVATIVE” (AJINOMOTO CO., INC., priority 2010, published 2013) come the findings set out here.

In one data set the target is FXa (Homo sapiens, UniProt P00742). Put plainly: Measurement of inhibitory activity against activated factor X (chromogenic substrate S-2222). In kind it is biochemical. The settings on record: 0.015 U/ml FXa, 0.2 mM S-2222, absorbance 405 nm; read-out: FXa (pIC50) (converted). The protocol:
Experimental Example 1 Measurement of Inhibitory Activity Against Activated Factor X Activity
(§1) Using a 96-well plate (#3396, Costar), 100 mM Tris-HC1 buffer (130 μL) containing 0.02% Tween 20, 0.1% PEG6000 and 0.2M NaCl was admixed with 0.015 U/ml FXa (10 μL) and a test compound (10 μL) for 10 min and a color developing substrate 0.2 mM S-2222 (50 μL) was added. Using a microplate reader Benchmark Plus (BIO-RAD), the reaction rate was measured from the time course changes at absorbance 405 nm. Using the reaction rate of the control as 100%, the negative logarithmic value of the concentration that can suppress the reaction rate of the control by 50% was taken as the pIC50 value.

For data set [1], the target named is activated factor IIa (thrombin) (Homo sapiens, UniProt P00734). As to the kind of experiment: Measurement of inhibitory activity against activated factor II (chromogenic substrate S-2238). In kind it is biochemical. The note with it: 0.125 U/ml thrombin, 0.1 mM S-2238, absorbance 405 nm; read-out: FIIa (pIC50) (converted). Here is the method:
Experimental Example 2 Measurement of Inhibitory Activity Against Activated Factor II (FIIa, Thrombin)
as §1, with “mM Tris-HCl” for “mM Tris-HC1”, “with 0.125” for “with 0.015”, “U/ml activated factor IIa (thrombin)” for “U/ml FXa”, “substrate 0.1” for “substrate 0.2”, “mM S-2238” for “mM S-2222”

In data set [2] the test system is human plasma. As to the kind of experiment: Anti-blood coagulant activity, aPTT method, Sysmex Cs-2000i (Experimental Example 3-2). In kind it is biochemical. The note with it: negative logarithmic value of the concentration that prolongs aPTT of the control 2 times. Here is the method: Experimental Example 3-2 Measurement of Anti-Blood Coagulant Activity
(§2) An aPTT measurement method using totally automatic blood coagulation time measuring apparatus Sysmex Cs-2000i was used. A 10 mg/ml DDVP solution (DDVP standard product, Wako) (8 μL) and a test compound solution (40 μL) were placed in a sample tube (MS-18, Japan Medical Science), human plasma (standard human plasma for blood coagulation test, GCH-100A, Sysmex) (360 μL) was added and the mixture was used as a test sample. The test sample (50 μL) was incubated at 37° C. for 1 min, data fi APTT (rabbit brain-derived cephalin, DADE Behiring) (50 μL) was added, and the mixture was further incubated at 37° C. for 2 min. To the sample solution was added 0.02M calcium chloride (50 μL), and the time until plasma coagulation was automatically measured.
(§3) As the anti-blood coagulant activity, the negative logarithmic value of the concentration that prolongs aPTT of the control 2 times is shown as paPTT2.

The nature of data set [3]: Evaluation of stability in plasma. In kind it is in vitro ADME. The settings on record: human plasma, 37° C., read-out: T½. The protocol:
Experimental Example 4 Evaluation of stability in plasma
To human plasma (495 μL) was added 5 μL from a solution of the test compound prepared to 200 μM (final drug solution concentration 2 μM), and the mixture was incubated at 37° C. At 0 min, 1 min, 2 min, 5 min and 10 min from the addition of the drug solution, 50 μL each was sampled, 0.1 mg/ml DDVP-containing acetonitrile (350 μL) was added, and the reaction was discontinued by blending them. After discontinuation of the reaction, a deproteination treatment was performed by a centrifugation operation at 15000 rpm for 5 min. The centrifugation supernatant (350 μL) was dried to solidness, concentrated, dissolved in aqueous solution (100 μL) of 20% acetonitrile and 0.1% formic acid and the mixture was subjected to the measurement by LC/MS/MS.
The half-life (T1/2) was calculated using initial 3rd-4th time points.

Data set [4] can be described thus: Evaluation of stability in liver S9 fraction. In kind it is in vitro ADME. The note with it: human liver S9 fraction 2 mg/mL, 2 μM, 37° C. Here is the method:
Experimental Example 5 Evaluation of Stability in Liver S9 Fraction
Metabolism reaction mixed solution (0.1 mM EDTA-100 mM potassium phosphate buffer (pH 7.4), 2 mg/mL human liver S9 fraction, 0.5 mM oxidized nicotinamide adenine dinucleotide phosphate, 5 mM glucose-6-phosphoric acid, 1 unit/mL glucose-6-phosphate dehydrogenase) was pre-warmed at 37° C. for 5 min. After pre-warming, DMSO solution of the substrate was added such that the concentration of the final drug solution was 2 μM, and the metabolism reaction was started at 37° C. A given amount was sampled at 0 min, 5 min, 10 min and 30 min from the start of the reaction, 0.1 mg/mL dichlorvos-containing acetonitrile was added, and blended to discontinue the reaction. After discontinuation of the reaction, a deproteination treatment was performed by a centrifugation operation at 15000 rpm for 5 min. To the centrifugation supernatant was added 0.3% aqueous formic acid solution, admixed and the mixture was subjected to the measurement by LC/MS/MS. Then, as the residual ratio (%) at 30 min later, the ratio relative to the concentration at 0 min was calculated.

The subject of data set [5] is human plasma. Put plainly: Anti-blood coagulant activity, aPTT method, Sysmex CA-1500 (Experimental Example 3-1). In kind it is biochemical. The settings on record: negative logarithmic value of the concentration that prolongs aPTT of the control 2 times. The protocol:
Experimental Example 3-1 Measurement of Anti-Blood Coagulant Activity
Examples 1, 8, 9, 11, 13, 16-19 and 22 were measured according to the following method.
as §2, with “CA-1500” for “Cs-2000i”, “(4” for “(8”, “(20” for “(40”, “(180” for “(360”
as §3

Sequence of FXa (P00742 235-488 limits assumed): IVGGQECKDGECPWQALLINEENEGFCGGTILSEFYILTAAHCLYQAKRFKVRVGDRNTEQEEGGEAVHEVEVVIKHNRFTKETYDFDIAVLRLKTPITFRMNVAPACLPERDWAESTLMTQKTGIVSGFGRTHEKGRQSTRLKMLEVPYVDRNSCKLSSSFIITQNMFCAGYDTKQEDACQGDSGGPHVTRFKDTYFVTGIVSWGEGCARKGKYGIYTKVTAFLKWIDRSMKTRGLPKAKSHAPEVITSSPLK
Sequence of FXa (P00742 41-179 partner limits assumed): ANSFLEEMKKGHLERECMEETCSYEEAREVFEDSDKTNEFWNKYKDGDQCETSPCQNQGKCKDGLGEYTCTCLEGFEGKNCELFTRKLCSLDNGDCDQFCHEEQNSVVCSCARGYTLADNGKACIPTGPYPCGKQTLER

For `C[C@@H](C(=O)Oc1ccc(C(=N)N2CCCC2)cc1)N(C)c1cccc(C(=N)N)c1` [compound of Ex. 4, 4-[imino(pyrrolidin-1-yl)methyl]phenyl N-{3-[amino(imino)methyl]phenyl}-N-methyl-L-alaninate 2 trifluoroacetate], the IC50 on FXa was 13.5 nM; in data set [1] it was 83.2 µM. This compound also had a paPTT2 in the data set on human plasma [2] of 6.89. In addition, in data set [3], the half-life at 2 μM came to 4 min. Also, the “residual ratio (%) of liver S9 fraction 30 min later” value in data set [4] came out at 57%.
Take `C[C@H](C(=O)Oc1ccc(C(=N)N2CCCC2)cc1)N(C)c1cccc(C(=N)N)c1` [compound of Ex. 5, 4-[imino(pyrrolidin-1-yl)methyl]phenyl N-{3-[amino(imino)methyl]phenyl}-N-methyl-D-alaninate 2 trifluoroacetate]: the IC50 on FXa is 20 nM; in data set [1], 38 µM. Further, the paPTT2 with human plasma [2] was 6.26. Besides, the half-life at 2 μM in data set [3] was determined as 3.7 min. Further, the “residual ratio (%) of liver S9 fraction 30 min later” value in data set [4] is 64%.
With `CC(=N)N1CCC(Oc2ccc(OC(=O)[C@H]3CCCN3c3cccc(C(=N)N)c3)cc2)CC1` [compound of Ex. 11, 4-[(1-ethanimidoylpiperidin-4-yl)oxy]phenyl 1-{3-[amino(imino)methyl]phenyl}-D-prolinate 2 trifluoroacetate], the IC50 on FXa is 105 nM; in data set [1], 0.347 µM. The compound further came in with a paPTT2 with human plasma [5] of 6.25. Moreover, the half-life at 2 μM in data set [3] is less than 1 min. For the same compound, the “residual ratio (%) of liver S9 fraction 30 min later” value in data set [4] is 85%.
`N=C(N)c1cccc(N2C[C@H](OCc3ccccc3)C[C@H]2C(=O)Oc2ccc(C(=N)N3CCCC3)cc2)c1` [compound of Ex. 13, 4-[imino(pyrrolidin-1-yl)methyl]phenyl (4R)-1-{3-[amino(imino)methyl]phenyl}-4-(benzyloxy)-L-prolinate 2 trifluoroacetate]: the IC50 was 339 nM at FXa and 0.288 µM in data set [1]. This compound also showed a paPTT2 in the data set with human plasma [5] of 5.59. Further, the half-life at 2 μM in data set [3] came to 8.2 min. Also, the “residual ratio (%) of liver S9 fraction 30 min later” value in data set [4] was 86%.
`N=C(N)c1cccc(N2CCCC[C@@H]2C(=O)Oc2ccc(C(=N)N3CCCC3)cc2)c1` [compound of Ex. 18, 4-[imino(pyrrolidin-1-yl)methyl]phenyl (2R)-1-{3-[amino(imino)methyl]phenyl}piperidine-2-carboxylate 2 trifluoroacetate]: the IC50 at FXa is 4.57 nM; in data set [1], 2.95 µM. In addition, the paPTT2 in the data set on human plasma [5] is listed as 6.64.
`CC(=N)N1CCC(Oc2ccc(OC(=O)[C@H]3CCCCN3c3cccc(C(=N)N)c3)cc2)CC1` [compound of Ex. 19, 4-[(1-ethanimidoylpiperidin-4-yl)oxy]phenyl (2R)-1-{(3-[amino(imino)methyl]phenyl}piperidine-2-carboxylate 2 trifluoroacetate]: the IC50 on FXa is 7.76 nM; in data set [1] it was 3.39 µM. Also, the paPTT2 in the data set with human plasma [5] came out at 6.89.
Consider `N=C(N)c1cccc(N2CCC[C@H]2COC(=O)c2ccc(C(=N)N3CCCC3)cc2)c1` [compound of Ex. 22, ((2S)-1-{3-[amino(imino)methyl]phenyl}pyrrolidin-2-yl)methyl 4-[imino(pyrrolidin-1-yl)methyl]benzoate 2 trifluoroacetate], for which the IC50 was 398 nM at FXa and greater than 100 µM in data set [1]. In addition, the paPTT2 in the data set on human plasma [5] is listed as 6.03. In addition, the half-life at 2 μM in data set [3] was less than 1 min. Further, the “residual ratio (%) of liver S9 fraction 30 min later” value in data set [4] turned out to be 80%.
`N=C(N)c1cccc(N2CCC[C@@H]2COC(=O)c2ccc(C(=N)N3CCCC3)cc2)c1` [compound of Ex. 23, ((2R)-1-{3-[amino(imino)methyl]phenyl}pyrrolidin-2-yl)methyl 4-[imino(pyrrolidin-1-yl)methyl]benzoate 2 trifluoroacetate]: in data set [3], the half-life at 2 μM stood at 0.2 min. Moreover, the “residual ratio (%) of liver S9 fraction 30 min later” value in data set [4] was found to be 76%.
With `CC(=N)N1CCC(Oc2ccc(C(=O)OC[C@@H]3CCCN3c3cccc(C(=N)N)c3)cc2)CC1` [compound of Ex. 24, ((2S)-1-{3-[amino(imino)methyl]phenyl}pyrrolidin-2-yl)methyl 4-[(1-ethanimidoylpiperidin-4-yl)oxy]benzoate 2 trifluoroacetate], the half-life at 2 μM in data set [3] was 0.5 min. Moreover, the “residual ratio (%) of liver S9 fraction 30 min later” value in data set [4] was found to be 92%.
